In brackets after ≈: the same amount, converted by molar mass.

Series [1] concerns Haemophilus influenzae IID1638. Briefly: MIC against Haemophilus influenzae IID1638. It counts as cell-based. Conditions: Table 1.
The test system of series [2] is Serratia marcescens IID620. Briefly: MIC against Serratia marcescens IID620. It counts as cell-based. The settings on record: Table 1.
In series [3] the test system is Staphylococcus aureus 209-P. Briefly: MIC against Staphylococcus aureus 209-P. It counts as cell-based. The settings on record: Table 1.
In series [4] the test system is Morganella morganii IID601. As to the kind of experiment: MIC against Morganella morganii IID601. It counts as cell-based. Conditions: Table 1.
For series [5], the system named is Klebsiella pneumoniae IID875. As to the kind of experiment: MIC against Klebsiella pneumoniae IID875. It counts as cell-based. Conditions: Table 1.
In a further series the test system is Escherichia coli NIHJ. Briefly: MIC against Escherichia coli NIHJ. It counts as cell-based. The settings on record: Table 1.
Series [6] in a line: Bioavailability by oral administration in mice (urinary excretion). It counts as in vivo. The settings on record: mouse, urine, 20 mg/kg, CMC-Na suspension; for dose excreted at 6 h: collected during 6 hours, read-out: Recovery in urea. The method, then:
Certain representative compounds according to the present invention were each suspended in a CMC-Na solution. The resulting suspension was administered orally to mice at the dosage of 20 mg/kg. Urea excreted during 6 hours after the administration was collected.

The subject of series [7] is Haemophilus influenzae E35147. As to the kind of experiment: MIC against Haemophilus influenzae E35147. It counts as cell-based. Conditions: Table 4.
In series [8] the test system is Haemophilus influenzae E35147. Briefly: Treatment of respiratory-infected mice, Haemophilus influenzae E35147. Conditions: mouse, oral, 40 mg/kg, 1 hour after inoculation of 4.3 × 10^5 CFU/mouse; counted 24 hours after infection; limit 1.48, no colony = 1; control 5.73 ± 0.58. It counts as in vivo, mouse infected with Haemophilus influenzae. The method, then:
(§1) A bacterium-containing solution was inoculated into the nasal cavity of each mouse, followed by the oral administration of a suspension of one of the compounds in a CMC-Na solution one hour later where the bacterium was Haemophilus influenzae but four hours later where the bacterium was Klebsiella pneumoniae. The number of intrapulmonary viable cells of the bacterium was counted upon an elapsed time of 24 hours after the infection. The measurement limit is represented by the following formula. Log CFU/Lung=1.48 wherein CFU is the colony forming unit. When no colony was observed, the bacterium was regarded as having been eradicated and Log CFU/Lung was calculated to be 1.

For series [9], the system named is Klebsiella pneumonia E02033. Briefly: Treatment of respiratory-infected mice, Klebsiella pneumonia E02033. It counts as in vivo, mouse infected with Klebsiella pneumonia. Conditions: mouse, oral, 10 mg/kg; for Intrapulmonary viable cells: 4 hours after inoculation of 1.4 × 10^3 CFU/mouse, counted 24 hours after infection, limit 1.48, no colony = 1, control 7.31 ± 0.73; for Eradication rate: inoculum 1.4 × 10^3 CFU/mouse, 24 hours after infection, control 0. The method, then:
as §1

In series [10] the test system is Klebsiella pneumonia E02033. Briefly: MIC against Klebsiella pneumonia E02033. It counts as cell-based. The settings on record: Klebsiella pneumoniae, Table 3.

Regarding “1-(Isopropoxycarbonyloxy)ethyl 7β-[2-(2-aminothiazol-4-yl)-2-(Z)-acetoxyiminoacetamido]-3-N,N-dimethylcarbamoyloxymethyl-3-cephem-carboxylate hydrochloride [Example 40]”, the MIC in series [1] was found to be 0.2 µg/mL; in series [2] it was 0.1 µg/mL; in series [3], 0.2 µg/mL; in series [4], 0.05 µg/mL; in series [5], 0.05 µg/mL; against Escherichia coli NIHJ, 0.05 µg/mL.

“1-(Isopropoxycarbonyloxy)ethyl 7β-[2-(2-aminothiazol-4-yl)-2-(Z)-hydroxyiminoacetamido]-3-N,N-dimethylcarbamoyloxymethyl-3-cephem-carboxylate hydrochloride [Example 41]”: the MIC in [1] came to 0.2 µg/mL; in series [2], 0.1 µg/mL; in series [3], 0.2 µg/mL; in series [4], 0.1 µg/mL; in series [5], 0.2 µg/mL; in the series on Escherichia coli NIHJ, 0.2 µg/mL.

“7-Amino-3-N,N-dimethylcarbamoyloxymethyl-3-cephem-4-carboxylic acid [Example 39]”: the MIC was found to be 0.2 µg/mL in series [1]; 0.05 µg/mL in [2]; 0.2 µg/mL in series [3]; 0.05 µg/mL in series [4]; 0.025 µg/mL in series [5]; 0.05 µg/mL with Escherichia coli NIHJ.

As usually defined, the bioavailability is dose-corrected exposure relative to a reference, in per cent. Regarding `CC(C)(C)C(=O)OCOC(=O)C1=C(COC(N)=O)CS[C@@H]2C(NC(=O)/C(=N\O)c3csc(N)n3)C(=O)N12` (some centres unmarked) [Compound B, Pivaloyloxymethyl 7-[(Z)-2-(2-aminothiazol-4-yl)-2-hydroxyiminoacetamido]-3-carbamoyloxymethyl-3-cephem-4-carboxylate, reference compound], in [6], the bioavailability at 6 h stood at 17% and the dose excreted at 6 h amounted to 11%.

On to `CC(C)OC(=O)OC(C)OC(=O)C1=C(COC(N)=O)CS[C@@H]2C(NC(=O)/C(=N\O)c3csc(N)n3)C(=O)N12` (some centres unmarked) [Compound C, 1-(Isopropyloxycarbonyloxy)ethyl 7-[(Z)-2-(2-aminothiazol-4-yl)-2-hydroxyiminoacetamido]-3-carbamoyloxymethyl-3-cephem-4-carboxylate, reference compound], for which the MIC in [7] turned out to be 0.8 µg/mL (≈ 1.4 µM). The same compound had an Intrapulmonary viable cells in series [8] of 5.50 ± 0.61 Log CFU/Lung. Besides, in [6], the bioavailability at 6 h stood at 7% and the dose excreted at 6 h came to 4.5%.

Consider `CO/N=C(\C(=O)NC1C(=O)N2C(C(=O)OCOC(=O)C(C)(C)C)=C(COC(N)=O)CS[C@H]12)c1csc(N)n1` (some centres unmarked) [Compound D, Pivaloyloxymethyl 7-[(Z)-2-(2-aminothiazol-4-yl)-2-methoxyiminoacetamido]-3-carbamoyloxymethyl-3-cephem-4-carboxylate, reference compound], for which, in series [6], the bioavailability at 6 h turned out to be 17% and the dose excreted at 6 h worked out at 10.4%.

As to `COCC1=C(C(=O)OC(C)OC(=O)OC(C)C)N2C(=O)C(NC(=O)/C(=N\OC)c3csc(N)n3)[C@H]2SC1` (some centres unmarked) [Compound E, 1-(Isopropyloxycarbonyloxy)ethyl 7-[(Z)-2-(2-aminothiazol-4-yl)-2-methoxyiminoacetamido]-3-methoxymethyl-3-cephem-4-carboxylate], in series [9], the Intrapulmonary viable cells was determined as 4.26 ± 0.62 log CFU/lung and the Eradication rate is reported as 0%. In series [10], this compound gave an MIC of 0.2 µg/mL (≈ 0.359 µM).

As to `C=CC1=C(C(=O)O)N2C(=O)C(NC(=O)/C(=N\O)c3csc(N)n3)[C@H]2SC1` (some centres unmarked) [Compound F, 7-[(Z)-2-(2-aminothiazol-4-yl)-2-hydroxyiminoacetamido]-3-vinyl-3-cephem-4-carboxylic acid], the Intrapulmonary viable cells worked out at 6.25 ± 0.74 log CFU/lung in [9] and 5.16 ± 0.73 Log CFU/Lung in series [8]. Moreover, the Eradication rate in [9] stood at 0%. The MIC in series [7] amounted to 0.8 µg/mL (≈ 2.02 µM); in series [10], 0.2 µg/mL (≈ 0.506 µM).

For the compound `CN(C)C(=O)OCC1=C(C(=O)OCOC(=O)C(C)(C)C)N2C(=O)C(NC(=O)/C(=N\O)c3csc(N)n3)C2SC1` (centres unmarked) [Example 14, Pivaloyloxymethyl 7-[(Z)-2-(2-aminothiazol-4-yl)-2-hydroxyiminoacetamido]-3-N,N-dimethylcarbamoyloxymethyl-3-cephem-4-carboxylate], in series [6], the bioavailability at 6 h amounted to 38% and the dose excreted at 6 h is 18.2%.

Turning to `CC(C)OC(=O)OC(C)OC(=O)C1=C(COC(=O)N(C)C)CSC2C(NC(=O)/C(=N\O)c3csc(N)n3)C(=O)N12` (centres unmarked) [Example 20, 1-(Isopropyloxycarbonyloxy)ethyl 7-[(Z)-2-(2-aminothiazol-4-yl)-2-hydroxyiminoacetamido]-3-N,N-dimethylcarbamoyloxymethyl-3-cephem-4-carboxylate], in series [9], the Intrapulmonary viable cells stood at 1.66 ± 1.02 log CFU/lung and the Eradication rate was determined as 50%. Moreover, the MIC in series [7] is 0.1 µg/mL (≈ 0.166 µM). This compound gave an MIC in [10] of 0.1 µg/mL (≈ 0.166 µM). In [8], this compound gave an Intrapulmonary viable cells of 3.51 ± 0.37 Log CFU/Lung. In addition, in series [6], the bioavailability at 6 h was determined as 46% and the dose excreted at 6 h came out at 22%.

Take `CO/N=C(\C(=O)NC1C(=O)N2C(C(=O)OCOC(=O)C(C)(C)C)=C(COC(=O)N(C)C)CSC12)c1csc(N)n1` (centres unmarked) [Example 24, Pivaloyloxymethyl 7-[(Z)-2-(2-aminothiazol-4-yl)-2-methoxyiminoacetamido]-3-N,N-dimethylcarbamoyloxymethyl-3-cephem-4-carboxylate]: in [6], the bioavailability at 6 h was 34% and the dose excreted at 6 h came to 20%.

For `CC(=O)O/N=C(\C(=O)NC1C(=O)N2C(C(=O)OC(C)OC(=O)OC(C)C)=C(COC(=O)N(C)C)CSC12)c1csc(N)n1` (stereo not drawn) [Example 43, 1-(Isopropoxycarbonyloxy)ethyl 7β-[2-(2-aminothiazol-4-yl)-2-(Z)-acetoxyiminoacetamido]-3-N,N-dimethylcarbamoyloxymethyl-3-cephem-carboxylate], in [7], the MIC is 0.2 µg/mL (≈ 0.311 µM). The same compound returned an Intrapulmonary viable cells in series [8] of 4.86 ± 0.60 Log CFU/Lung.

As for “Benzhydryl 7-formamido-3-N,N-dimethylcarbamoyloxymethyl-3-cephem-4-carboxylate [Example 38]”, the MIC in series [1] was found to be 0.2 µg/mL; in [2], 0.05 µg/mL; in series [3], 0.1 µg/mL; in series [4] it was 0.05 µg/mL; in series [5] it was 0.025 µg/mL; in the series with Escherichia coli NIHJ it was 0.025 µg/mL.

Values taken from patent US5587473A, “7-acyl-3-(substituted carbamoyloxy) cephem compounds and process for their preparation” (Eisai Co., Ltd., priority 1990, dated 1996).
